{
  "source": "patent US20250295583A1",
  "about": "“INHALED HEDGEHOG INHIBITORS” (WBX PHARMA, INC., priority 2024, published 2025)",
  "key": {"[1]": {"assay_type": "physicochemical", "description": "Four dry powder formulations were developed using spray drying with two being acceptable for human use. […] The selected bulking agents were mannitol or trehalose with dispersibility enhancer: L-leucine (˜0.55 wt % solubility limit in 50:50 EtOH: water). Two mannitol formulations and two trehalose formulations with different amounts of L-leucine 10% and 26% were made using a BLD-35 spray dryer. The tested dose was 10 mg of the formulation in a Berry RSO1 high resistance inhaler."}, "IPF": {"system": "IPF", "conditions": "given orally alone as a monotherapy; cited from earlier work"}, "[2]": {"conditions": "cited from earlier work"}, "IPF patients": {"system": "IPF patients", "conditions": "21 IPF patients, cited from earlier work; for patients who discontinued the drug: combination trial of vismodegib plus pirfenidone"}, "[3]": {"conditions": "cited from earlier work", "remark": "listed apart in the source"}, "[4]": {"conditions": "cited from earlier work", "remark": "listed apart in the source"}, "[5]": {"experiment": "Estimate of systemic exposure after inhaled dosing versus oral dose", "design": "species or system human", "method": "This would be about 6 half-lives. Depending on the half-life in the epithelial lining fluid, one to six inhalations a day would provide adequate inhibition of hedgehog receptors. At the highest dose frequency (6 inhalations/day), the total delivered dose would approximate 3.6 mg."}, "[6]": {"system": "subjects with mild to moderate IPF", "conditions": "cited from earlier work"}, "[7]": {"experiment": "Estimate of epithelial lining fluid (ELF) concentration after inhaled delivery, from pirfenidone data", "design": "species or system human", "conditions": "for predicted ELF concentration adjusted for 200 μg delivery: inhaled dry powder, 200 μg delivered; for predicted ELF molar concentration if 45 mg delivered: inhaled, extrapolated from pirfenidone data", "description": "The physical delivery of any drug by the inhalation route may be estimated by data generated in the delivery of inhaled pirfenidone.\nAgain, since delivery is just a physical process, one can estimate ELF concentrations for 200 μg of taladegib delivered as noted above based on pirfenidone data."}, "[8]": {"experiment": "Published pharmacokinetics of oral vismodegib", "assay_type": "in vivo, human", "conditions": "once daily oral therapy", "source_text": "Only unbound drug can freely cross the alveolar epithelial barrier."}, "[9]": {"conditions": "150 mg daily oral dose, cited from earlier work"}, "[10]": {"experiment": "Accumulation factor calculation at steady state", "conditions": "half-life 3 days, dosing interval 1 day, first-order kinetics", "source_text": "This calculation assumes the API is being administered in a clinically effective formulation as disclosed herein, at regular intervals, and that the pharmacokinetics of the candidate compound follow first-order kinetics where the rate of drug elimination is proportional to its concentration. To calculate the multiple of the initial drug concentration at steady state (known as the “accumulation factor”), the formula:\nSubstitute into the formula: With τ=1 day: AF=1/(1−e^(−0.231*1))≈1/(1−e^(−0.231)).\nEvaluate the exponential: e^(−0.231)≈0.794."}},
  "note": "Several values for one entry are separate records, joined by “and”; a condition that tells them apart may be missing. Equal values may be shown once.",
  "data": [
    {"smiles": "CC(C)C[C@H](N)C(=O)O", "note": "[L-leucine]", "values": [
      {"measurement": "solubility limit in 50:50 EtOH: water", "setting": "[1]", "result": "~0.55", "unit": "wt %"}
    ]},
    {"smiles": "COC(=O)c1ccc2c(c1)NC(=O)/C2=C(\\Nc1ccc(N(C)C(=O)CN2CCN(C)CC2)cc1)c1ccccc1", "note": "[nintedanib]", "values": [
      {"measurement": "slowing of the progression of the disease", "setting": "IPF", "result": "about 50%"}
    ]},
    {"smiles": "Cc1ccc(=O)n(-c2ccccc2)c1", "note": "[pirfenidone]", "values": [
      {"measurement": "amount delivered to the lung", "setting": "[2]; 100 mg dose in the nebulizer, 24 hour urine analysis", "result": 45, "unit": "mg"},
      {"measurement": "epithelial lining fluid concentration", "setting": "[2]; aerosolized, normal volunteers, average", "result": 135, "unit": "µg/mL"},
      {"measurement": "patients who discontinued the drug", "setting": "IPF patients", "result": 33.3, "unit": "%"},
      {"measurement": "slowing of the progression of the disease", "setting": "IPF", "result": "about 50%"}
    ]},
    {"smiles": "CN(C(=O)c1ccc(F)cc1C(F)(F)F)C1CCN(c2nnc(-c3ccnn3C)c3ccccc23)CC1", "note": "[taladegib, Taladegib]", "values": [
      {"measurement": "mean concentration at steady state", "setting": "[3]; 200 mg daily oral dose", "result": "about 0.8 μmol/L"},
      {"measurement": "absorption", "setting": "[3]; 200 mg oral dose", "result": "approximately 30%"},
      {"measurement": "plasma protein bound", "setting": "[4]", "result": 95, "unit": "%"},
      {"measurement": "systemic exposure/absorption relative to the oral dose", "setting": "[5]; six inhalations a day, total 3.6 mg", "result": "less than 10%"},
      {"measurement": "alopecia", "setting": "[6]; oral taladegib group", "result": 52, "unit": "%"},
      {"measurement": "dysgeusia", "setting": "[6]; oral taladegib group", "result": 57, "unit": "%"},
      {"measurement": "muscle spasms", "setting": "[6]; oral taladegib group", "result": 43, "unit": "%"},
      {"measurement": "lung fibrosis by high resolution CT scan", "setting": "[6]; oral taladegib versus slight increase in placebo group", "result": "decreased lung fibrosis"},
      {"measurement": "improvement in FVC", "setting": "[6]; oral taladegib, at 12 weeks, on average, placebo 1.3% loss (p=0.035)", "result": 1.9, "unit": "%"},
      {"measurement": "ELF concentration versus that achieved by 200 mg oral dose of taladegib (unbound)", "setting": "[7]; 200 μg inhaled delivered dose", "result": "≈ 29 fold and > 29 fold"},
      {"measurement": "predicted ELF concentration adjusted for 200 μg delivery", "setting": "[7]", "result": 1.16, "unit": "µmol/L"},
      {"measurement": "predicted ELF molar concentration if 45 mg delivered", "setting": "[7]", "result": 264, "unit": "µmol/L"}
    ]},
    {"smiles": "CS(=O)(=O)c1ccc(C(=O)Nc2ccc(Cl)c(-c3ccccn3)c2)c(Cl)c1", "note": "[vismodegib, Vismodegib]", "values": [
      {"measurement": "amount dissolved in 50:50 EtOH: water (wt/wt) solution", "setting": "[1]; 50:50 EtOH: water (wt/wt)", "result": 4, "unit": "%"},
      {"measurement": "plasma protein bound", "setting": "[4]", "result": 98, "unit": "%"},
      {"measurement": "plasma protein binding, in words", "setting": "[4]; to albumin and alpha-1 acid glycoprotein", "result": "highly protein-bound"},
      {"measurement": "plasma concentration nadir, of the peak", "setting": "[8]", "result": "about 80%"},
      {"measurement": "mean unbound concentration", "setting": "[9]; steady state", "result": "109 ± 58", "unit": "nM"},
      {"measurement": "peak plasma concentration at steady state", "setting": "[9]", "result": "22.6 ± 10.8", "unit": "µmol/L"},
      {"measurement": "patients who discontinued the drug", "setting": "IPF patients", "result": 42.9, "unit": "%"},
      {"measurement": "lung function and shortness of breath", "setting": "IPF patients; vismodegib 150 mg daily plus pirfenidone 801 mg three times daily, 24 weeks, on average", "result": "improved"},
      {"measurement": "patients reporting at least one treatment-emergent adverse event", "setting": "IPF patients; vismodegib 150 mg daily plus pirfenidone, 24 weeks", "result": "all patients"},
      {"measurement": "accumulation factor, steady state concentration versus after the first dose", "setting": "[10]", "result": "about 4.85 times"},
      {"measurement": "total systemic exposure", "setting": "[5]; six administrations a day of a 30 mg capsule (delivered dose 600 μg each)", "result": 3.6, "unit": "mg"},
      {"measurement": "predicted ELF concentration adjusted for 200 μg delivery", "setting": "[7]", "result": 1.71, "unit": "µmol/L"},
      {"measurement": "predicted ELF molar concentration if 45 mg delivered", "setting": "[7]", "result": 388, "unit": "µmol/L"}
    ]}
  ]
}
